The text below walks through data of US20250302817A1, “METHODS FOR TREATING PTEN-MUTANT TUMORS” (Icahn School of Medicine at Mount Sinai, priority 2016, published 2025).

Structures are written as SMILES.

Series [1] deals with Pten^−/− and WT MEFs. The series is described as follows: Drug response assay (GI50 dose titration) in Pten WT and KO MEFs. The format is cell-based, mouse. As to conditions: for differential sensitivity of Pten^−/− versus WT MEFs: GI50 dose titration (FIG. 8, E-F). The method, then:
(§1) FIG. 2F is a graph comparing various human breast cancer cell line growth rates. FIG. 2G is a series of immunoblots of pAKT in nuclear fractions of Pten^−/− and Pik3ca mutant MEFs. […] Data shown as mean+SD.
(§2) 1500 cells per well (mouse cells) or 3000 cells per well (human cells) were plated in 96-well plates (Corning 720089). Growth rates were determined using the phase-confluency readings on an IncuCyte ZOOM (Essen Biosciences) on live cells over time.
(§3) Cells were plated in 96-well plates at a density of 1500 or 3000 cells per well. […] Sensitivity was determined by a dose-response titration for each cell line, with an equivalent amount of DMSO in each well. For cell death assays, DRAQ7™ (Cell Signaling 7406S) was added to the media at a 1:200 dilution and red fluorescence was measured in addition to phase in live-cell imaging to measure accumulation of dead cells. An IncuCyte ZOOM was used.

Series [2] relates to human breast, mouse breast, or mouse prostate tumor cell lines. Nature of the series: Proliferation rates of tumor cell lines versus leflunomide sensitivity. The format is cell-based.
Description: as §1
(§4) FIG. 7C, FIG. 7D, and FIG. 7E are series of bar graphs depicting the GI50s of cells treated with dose titrations of DHODH inhibitors as indicated (Student's t-test, *p-values as reported on the figures, n=3). […] FIG. 7G depicts the confluence of MCCL-278 and MCCL-357 breast cells. FIG. 7H depicts the confluence of Myc-CaP and CaP8 prostate cells. FIG. 7I is an immunoblot of pAKT in MCCL-278 and MCCL-357 breast cells. FIG. 7J is an immunoblot of pAKT in nuclear fractions of MCCL-278 and MCCL-357 breast cells. Data shown as means±SD.
as §2

The conditions of series [3]: in vivo; cited from earlier work.
Series [4] relates to MCCL-357 (Myc, Pten^−/−), CaP8 (PTEN^−/−), MCCL-278 (Myc, Pik3ca H1047R) and Myc-CaP (Myc). The series is described as follows: Drug response assay (GI50) in mouse cancer lines. The format is cell-based. As to conditions: Myc-CaP prostate cells (FIG. 7D).
Description: as §1, §4, §3

The test system of series [5] is Pten^−/− MEFs. The series is described as follows: EdU detection of replication forks in MEFs. The format is cell-based, mouse. As to conditions: after 24 h of treatment with leflunomide. The method, then:
(§5) FIG. 4A is a graph showing positively-stained cells labeled with a gamma-H2AX antibody; cells were analyzed by flow cytometry (Student's t-test, *p<0.05, n=3). […] The mean fluorescence intensity (MFI) was determined using flow cytometry (Student's t-test, *p<0.01, n=3). FIG. 4C is a series of representative photographs showing MEFs treated with 150 μM A771726 for 24 h and labeled with EdU and gamma-H2AX. Left: representative confocal microscopy images. Right: quantified EdU and gamma-H2AX colocalized foci (Student's t-test, *p<0.05, n=3). […] Left: representative confocal microscopy images. Right: quantification of the number of foci per cell (Student's t-test, p>0.05, n=6). FIG. 4E is a graph showing the percentage of cells treated with 150 μM A771726 for times indicated and labeled with antibodies to RPA and gamma-H2AX positively staining for RPA alone or both RPA and gamma-H2AX; cells were analyzed by flow cytometry (Student's t-test, *p<0.05, n=4). […] FIGS. 4G and 4H are graphs quantifying the number of chromosomal breaks and multiradial formations per haploid genome (Student's t-test, *p-values on figure, cells scored/replicate>100). […]
(§6) FIG. 10D is a bar graph showing a quantitative depiction of the percent cell area with EdU-staining from images in FIG. 4D, used to normalize foci to cell size (Student's t-test, p>0.05, not significant, n=6). […]

Series [6] relates to SUM149 and MDA-MB 468 xenografts. Nature of the series: PTEN-mutant triple-negative breast cancer xenografts. The format is in vivo, nu/nu mice. The method, then:
FIG. 3B is a graph showing the tumor volume of PTEN-mutant triple-negative breast cancer cell line SUM149 xenografts. […] FIG. 3C is a graph showing the relative luminescence of PTEN-mutant triple-negative breast cancer cell line MDA-MB 468 xenografts expressing luciferase. […] Radiance was measured on days 0, 7, 14, and 21, quantified as photons/second/cm^2/steradian. FIG. 3D: luminescence of treated and control mice after 2 weeks of treatment. Data shown as mean+SD for FIG. 3A and +SEM for FIGS. 3B and 3C.
FIG. 9A is an immunoblot of PTEN in the four patient-derived glioblastomas in FIG. 3A. […] Tumor size was measured by assessing luminescence, quantified by photons/second/cm^2/steradian (n=2). […] Tumor volume was measured by calipers. Growth rate of the tumors was determined by calculating the slope of the tumor growth (Student's t-test, *p<0.01, n=8). Data shown as means±SEM.
6-week old nu/nu mice (Jackson Laboratory, 20-25 g weight each) were engrafted orthotopically with either 5 million SUM149, 5 million MDAMB 468-luciferase, 1 million MCCL-357, or 0.75 million MCCL-278 cells. […] Luminescence was measured on days 0, 7, 14, and 21, quantified as photons/second/cm^2/steradian, and normalized to baseline.

In series [7] the test system is gamma-H2AX. Nature of the series: Gamma-H2AX measurement of DNA damage by flow cytometry. Type of series: cell-based. As to conditions: 100 μM leflunomide 48 h or A771726. As to the method: as §5, §6
Series [8] concerns Pten^−/− MEFs, PTEN-mutant human breast cancer cell lines, and Pten^−/− mouse breast lines. The series is described as follows: Cell death accumulation by live-cell imaging with DRAQ7. Type of series: cell-based. As to conditions: 100 uM leflunomide and DRAQ7, 6 h intervals; PTEN-deficient versus WT cells.
Description: as §1, §4, §3

Series [9] deals with PTEN-deficient cells. The series is described as follows: Orotate rescue of growth inhibition by leflunomide. Type of series: cell-based. As to conditions: increasing concentrations of orotate with 25 or 50 μM leflunomide; confluence after 5 days.
Description: as §1
Note that here as well as in FIG. 2, H-I, a large amount of DMSO was used in each condition to match the amount of orotate needed, narrowing the growth differential normally observed between leflunomide-treated and untreated cells in the PTEN mutant setting. FIG. 8B is a bar graph and immunoblot depicting cells transfected with siRNA against DHODH. The bar graph depicts cell viability measured using annexin V and 7AAD. 0.5 μg/mL actinomycin D was a positive control for cell death. (Students t-test, *p<0.05, n=3). […] FIG. 8C is an immunoblot of DHODH in Pten KO and WT cells. FIG. 8D is an immunoblot of pAKT in Pten KO and WT cells with or without treatment with 50 μM A771726. FIG. 8E and FIG. 8F are bar graphs depicting the GI50s of cells treated with dose titrations of 5-fluorouracil or mercaptopurine, respectively (Student's t-test, p>0.05, n=3). FIG. 8G depicts the confluence of prostate cells grown in media containing full glutamine (4 mM) or no added glutamine. Data shown as means±SD.
Orotate (Sigma O2750) was dissolved in DMSO.

The subject of series [10] is Pten^−/− and WT MEFs. The series is described as follows: Growth of Pten WT and KO MEFs with glutaminase inhibitor (proliferation assay). Type of series: cell-based, mouse. As to conditions: 12.5 nM CB-839 (FIG. 1F). The method, then: FIG. 1A is a graph comparing the growth of Pten wild-type (WT) and KO MEFs (one-way ANOVA, *p<0.0001, n=3). FIG. 1B is a series of representative confocal microscopy photographs showing MEFs labeled with EdU. FIG. 1C is a graph showing a quantitative depiction of the photographs in FIG. 1B (Student's t-test, *p<0.05, n=6). FIG. 1D is a graph showing a quantitative depiction of the mean fluorescence intensity of MEFs labeled with EdU; cells were analyzed by flow cytometry (Student's t-test, *p<0.01, n=3). FIG. 1E is a series of representative photographs showing Pten WT and KO MEFs in media containing full glutamine ([…]) or no added glutamine (one-way ANOVA, *p<0.0001, n=3). […] FIG. 1G is a graph comparing the relative metabolite concentrations of DNA nucleotide precursors in Pten WT and KO MEFs (dGMP was unable to be measured so dGTP was used instead) (Student's t-test, *p<0.05, n=3). […] Data were also analyzed with IMPaLA: ^13C glutamine-derived pyrimidine metabolism enrichment in PTEN^−/− MEFs q-value=3.92×10^−09. […]
1500 cells per well (mouse cells) or 3000 cells per well (human cells) were plated in 96-well plates (Corning 720089). Growth rates were determined using the phase-confluency readings on an IncuCyte ZOOM (Essen Biosciences) on live cells over time. […]

As for `O=c1[nH]cc(F)c(=O)[nH]1` [5-flurouracil, 5-fluorouracil], the “differential sensitivity of Pten^−/− versus WT MEFs” value in series [1] is listed as “did not show a differential sensitivity”.

`S=c1nc[nH]c2nc[nH]c12` [mercaptopurine]: in series [1], the “differential sensitivity of Pten^−/− versus WT MEFs” value is recorded as “did not show a differential sensitivity”.

As to `Cc1oncc1C(=O)Nc1ccc(C(F)(F)F)cc1` [leflunomide], the “association of sensitivity with proliferation rates of tumor cell lines” value in series [2] is “not associated with the proliferation rates”. Moreover, the half-life in series [3] is recorded as ~2 weeks. Also, the “sensitivity of Myc-CaP cells” value in series [4] was “resistant”. Moreover, the “number of replication forks in Pten^−/− MEFs after treatment” value in series [5] was “remained intact”. In series [6] (100 mg/kg oral leflunomide, two PTEN-mutant triple-negative breast cancer xenografts), the “tumor growth upon treatment” value is reported as “slowed or regressed”. In [6] (MDA-MB 468 xenografts grown seven weeks untreated, then 100 mg/kg leflunomide for 1 week), the “response of very large tumors (4×10^7 photons)” value is reported as “regressed after only 1 week of treatment”. In addition, the “DNA damage (gamma-H2AX) in PTEN-deficient versus WT cells” value in series [7] is reported as “augmented DNA damage to a significantly greater degree in PTEN-deficient cells”. Also, in [8], the “accumulation of dead cells over time” value is reported as “increased accumulation of dead cells over time”.

For the molecule `O=C(O)c1cc(=O)[nH]c(=O)[nH]1` [orotate], the “rescue of growth inhibition by leflunomide” value in series [9] is “rescued growth inhibition by leflunomide in a dose-dependent manner”.

For the molecule `O=C(Cc1cccc(OC(F)(F)F)c1)Nc1ccc(CCCCc2nnc(NC(=O)Cc3ccccn3)s2)nn1` [CB-839], in series [10], the “growth difference between Pten^−/− and WT MEFs” value was “sufficient to collapse the growth difference”.

Take `Cc1c(-c2ccc(-c3ccccc3F)cc2)nc2ccc(F)cc2c1C(=O)O` [brequinar]: in series [1] (GI50 dose titration (FIG. 2A)), the “sensitivity of Pten^−/− MEFs compared with WT MEFs” value is given as “more sensitive”.
